The values below come from patent publication US4937346A, “Phenyl-azacykloalkanes” (Carlsson; Per Arvid Emil, priority 1979, dated 1990).

Where a name gives a salt, the structure may show the parent alone. Read-outs that look alike come from different tables or passages of the source. Some results are limits rather than exact numbers.

One experiment deals with dopa formation. As to the kind of experiment: Dopa formation and dopamine metabolite levels in rats not pretreated with GBL or reserpine. In kind it is in vivo, rat.
Experiment [1] has as its system presynaptic dopaminergic receptor (autoreceptor). As to the kind of experiment: Spontaneous exploratory motor activity of rats, enantiomers of 3-PPP. The experiment is classed as in vivo, rat. As for the experimental part:
1. Evidence for presynaptic dopaminergic receptor (autoreceptor) agonist activity of both enantiomers of 3-PPP. Both enantiomers of 3-PPP cause a dose-dependent decrease in spontaneous exploratory motor activity of rats. […] However, the (+)-enantiomer causes a decrease only after doses between 0.25 and 4 mg/kg s.c.

Experiment [2] deals with dopaminergic receptors (presynaptic and postsynaptic). As to the kind of experiment: Dopaminergic receptor profile of 3-PPP and its enantiomers (summary of tests). The experiment is classed as in vivo. As to conditions: summary of enantiomer tests. The text has this: The two enantiomers of 3-PPP have now been tested separately.
The test system of experiment [3] is postsynaptic dopaminergic receptors. As to the kind of experiment: Locomotor activity in reserpine-treated rats, enantiomers of 3-PPP. The experiment is classed as in vivo, rat. The text has this:
2. Evidence for postsynaptic dopaminergic receptor agonist activity of (+)-3-PPP.

The subject of experiment [4] is rat brain tyrosine hydroxylation. Put plainly: In-vivo determination of rat brain tyrosine hydroxylation (Dopa formation after NSD 1015, reserpine-pretreated rats). As to conditions: sc. As for the experimental part:
2. In-vivo determination of rat brain tyrosine hydroxylation.
The compounds under evaluation were tested biochemically for central DA-receptor (pre- and/or postsynaptic) stimulating activity. The concept of this biochemical screening method is that a DA-receptor agonist will stimulate the receptor and through regulatory feedback systems effect a decline in tyrosine hydroxylase activity and thus a subsequent reduction in the synthesis rate for DA in the presynaptic neuron. Dopa formation, as determined after in-vivo inhibition of the aromatic L-amino acid decarboxylase with NSD 1015 (3-hydroxybenzyl-hydrazine hydrochloride), is taken as an indirect measure of DA synthesis rate.
Rats (150-300 g) pretreated with reserpine were given the compounds under evaluation. Gross behavioral observations (changes in motility, stereotypies etc.) were made in order to evaluate possible postsynaptic dopamine receptor activity. Subsequent administration of NSD 1015, decapitation, brain dissection (corpora striate and the limbic fore-brain), homogenization, centrifugation, ion-exchange chromatography and spectrofluorimetric measurements (all as described in detail by Wikstrom et al., in J. Med. Chem. 21, 864-867, 1978, and references cited therein), gave the actual Dopa levels. Several doses (n=4-6) were tested in order to obtain dose-response curves for each compound and brain area. The dose of a compound producing a half-maximal decrease in the Dopa level in the rat brain part was then estimated.

The test system of experiment [5] is postsynaptic DA receptors. As to the kind of experiment: Antagonism of the reserpine-induced "neuroleptic syndrome" in the rat. In kind it is in vivo. Particulars: 20 mg/kg s.c. An excerpt:
1. Antagonism of the reserpine-induced "neuroleptic syndrome" in the rat
Depletion of the monoamine stores with reserpine brings about a "neuroleptic syndrome" characterized by hypomotility, catalepsy, muscle rigidity, hunch-backed posture as well as a number of other central and peripheral signs of monoamine depletion. This syndrome can be reversed by the administration of drugs that stimulate postsynaptic DA receptors directly or indirectly, e.g. apomorphine, L-Dopa.
Rats (150-300 g) pretreated with reserpine (10 mg/kg i.p., 6 h before) were given compound 4 subcutaneously at different doses.

Experiment [6] has as its system central postsynaptic DA-receptor. Put plainly: Locomotor activity in reserpine-pretreated rats, comparison of compound 4 with two known dopaminergic agonists. Particulars: for Motor activity: 0-60 min postinj.; for central postsynaptic DA-receptor stimulation / motor response: s.c. In kind it is in vivo, rat. On the procedure:
Rats (150-300 g) pretreated with reserpine (10 mg/ kg i.p., 6 h before) were given either phys. saline, compound 4 (100 μmol/kg), N-n-propyl-3-(3,4-dihydroxyphenyl)piperidine (100 μmol/kg) or apomorphine ([…]) subcutaneously and the locomotor activity (accumulated counts 0-60 min.) was quantified by means of Motron boxes (see under 4 above).

Experiment [7] has as its system postsynaptic dopaminergic receptor. Put plainly: Antagonism of apomorphine-induced locomotor stimulation. The experiment is classed as in vivo, rat. As to conditions: apomorphine 1 mg/kg s.c., means ± s.e.m., n=10. As for the experimental part: 3. Evidence for postsynaptic dopminergic receptor antagonist activity of (-)-3-PPP.
The locomotor stimulating action of the dopamine receptor aqonist apomorphine is antagonized by (-)-3-PPP. […] Thus the postsynaptic receptor antagonist activity requires a larger dose than the presynaptic receptor agonist activity, which is evident after doses down to 0.25 mg/kg.
Further, (-)-3-PPP and racemic 3-PPP have been compared regarding antagonism of apomorphine-induced locomotor stimulation. Either form of 3-PPP was injected subcutaneously in a dose of 8 mg/kg 20 min and apomorphine in a dose of 1 mg/kg subcutaneously 5 min before placing the rats in the Motron for 30 min. Shown are the counts per 30 min., means± s.e.m. and number of experiments (n).

Another experiment relates to DA autoreceptors. As to the kind of experiment: Effect on spontaneous locomotor activity in the rat. In kind it is in vivo. As to conditions: 0-15 min; haloperidol 0.02 mg/kg i.p. 25 min before + saline, n=5. An excerpt: 4. Effect on spontaneous locomotor activity in the rat.
Untreated animals exposed to a new environment display an initial high motor activity which then gradually declines over a period of time. Administration of DA-receptor agonists (e.g. apomorphine) in doses where preferential autoreceptor stimulation is likely to occur, causes a depression of the spontaneous motility mentioned above, considered to be due to the DA autoreceptor-mediated impairment of central DA transmission.
Rats (150-300 g) were injected subcutaneously with several doses of compounds 4 and after 5 minutes they were individually placed in motility boxes ("M/P 40 Fc Electronic Motility Meter". Motron Products, Stockholm) and the motor activity (0-30 min.) was quantified. […] Moreover, there seems to be a correlation between the decrease in spontaneous locomotion and the degree of antagonism of the GBL-induced increase in DA synthesis (cf. 3 above) in the limbic areas of rat brain exerted by compound 4, the per cent decrease of motor activity being roughly 0.6 times the per cent reversal of GBL-induced increase in DA-synthesis rate.

[8] abbreviates: reserpine-pretreated rats, Dopa level, limbic, read-out: ED50 Limbic.
[9] abbreviates: reserpine-pretreated rats, Dopa level, striatum, read-out: ED50 Striatum.
Where [10] appears, read: limbic, inactive, read-out: ED50 Limbic (class symbol).
[11] abbreviates: striatum, inactive, read-out: ED50 Striatum (class symbol).

Turning to `CCCN1CCCC(c2cccc(O)c2)C1` (single isomer, unassigned; (+)) [(+)-3-PPP, reference compound], the dopa formation result with dopa formation (0.053 to 64 mg/kg, no pretreatment) is given as “decrease”. For the same molecule, the “levels of 3,4-dihydroxyphenyl acetic acid and homovanillic acid” value in the experiment on dopa formation (matched to the changes in dopa formation) is reported as “corresponding changes in the levels of the dopamine metabolites”. Also, the “effect on locomotor activity” value in experiment [1] (8 mg/kg s.c.) was “no effect”. In addition, the “increase of locomotor activity to % of control” value in experiment [1] (64 mg/kg s.c.) was “more than 200 % of control”. For the same molecule, the “decrease of locomotor activity to % of control” value in [1] (s.c., first 30 min) is 30-40 % of control. The “activity on presynaptic and postsynaptic dopaminergic receptors” value in [2] is “dopaminergic receptor agonist by activating both the presynaptic and the postsynaptic receptors”. Besides, the “effect of haloperidol on locomotor stimulation” value in experiment [3] (haloperidol) is recorded as “blocked by haloperidol”. For the same molecule, the “stimulation of locomotor activity” value in [3] (reserpine-treated rats, (+)-form 0.25 to 64 mg/kg) was “marked stimulation of locomotor activity”.
`CCCCN1CCCC(c2cccc(OC(=O)c3ccccc3)c2)C1` (centres unmarked) [Compound 22]: the median effective dose (ED50) in [4] (setting [8]) and in [4] (setting [9]) was less than 2.7 µmol/kg throughout.
Regarding `CN(C)CCN1CCCC(c2cccc(O)c2)C1` (centres unmarked) [Compound 14], the 50% effective dose (ED50) in experiment [4] (setting [8]) and in [4] (setting [9]) was roughly 20 µmol/kg in each case.
For the molecule `CCCN1CCCC(c2cccc(OC(=O)c3ccc(OC(=O)C(C)(C)C)cc3)c2)C1` (centres unmarked) [Compound 20], the median effective dose (ED50) in [4] (setting [8]) and in experiment [4] (setting [9]) was less than 45 µmol/kg throughout.
As to `CC(C)N1CCCC(c2cccc(OC(=O)c3ccccc3)c2)C1` (centres unmarked) [Compound 21], the ED50 in experiment [4] (setting [8]) and in experiment [4] (setting [9]) was 0.5 µmol/kg each time.
`CCCN1CCCC(c2cccc(OC(=O)Nc3ccccc3)c2)C1` (centres unmarked) [Compound 18, N-n-Propyl-3[3-(phenylcarbamoyloxy)phenyl]-piperidine hydrochloride]: the ED50 in [4] (read-out: ED50 Limbic) and in [4] (read-out: ED50 Striatum) was less than 45 µmol/kg each time.
For `CC(C)N1CCCC(c2cccc(O)c2)C1` (centres unmarked) [Compound 7, N-isopropyl-3-(3-hydroxphenyl)piperidine], the “antagonism of the reserpine-induced syndrome” value in experiment [5] is “No antagonism of the reserpine-induced syndrome was seen”. The ED50 in experiment [4] (setting [8]) was 0.8 µmol/kg; in [4] (setting [9]), 0.7 µmol/kg.
In the case of `CCCN1CCCC(c2cccc(OCc3ccccc3)c2)C1` (centres unmarked) [Compound 17, N-n-Propyl-3-(3-benzyloxyphenyl)piperidine hydrochloride], the ED50 in experiment [4] (setting [8]) and in experiment [4] (setting [9]) was less than 45 µmol/kg throughout.
Consider `CCCN1CCCC(c2ccc(O)c(O)c2)C1` (centres unmarked) [N-n-propyl-3-(3,4-dihydroxyphenyl)piperidine, reference compound], for which the ED50 worked out at 9.4 µmol/kg in experiment [4] (setting [8]) and 10 µmol/kg in experiment [4] (setting [9]). Further, the Motor activity in experiment [6] (100 μmol/kg s.c.) was found to be 522 ± 83 acc. counts. Moreover, the “central postsynaptic DA-receptor stimulation / motor response” value in [6] is listed as “strong central postsynaptic DA-receptor stimulatory effects”.
Take `CN1CCCC(c2cccc(O)c2)C1` (centres unmarked) [Compound 1]: the median effective dose (ED50) in [4] (setting [8]) turned out to be 2.1 µmol/kg; in experiment [4] (setting [9]), 1.5 µmol/kg.
Regarding `CCCN1CCCC(c2cccc(OC(=O)c3ccccc3)c2)C1` (centres unmarked) [Compound 12, N-n-Propyl-3-(3-benzoyloxyphenyl)piperidine hydrochloride], the values for the ED50 in experiment [4] (setting [8]) and in [4] (setting [9]) were 1.8 µmol/kg and 2 µmol/kg, respectively.
With `CCCN1CCCC(c2cccc(OC(C)=O)c2)C1` (centres unmarked) [Compound 10, N-n-Propyl-3-(3-acetoxyphenyl)piperidine hydrochloride], the 50% effective dose (ED50) in experiment [4] (setting [8]) was 1.2 µmol/kg; in [4] (setting [9]), 1.5 µmol/kg.
For the molecule `CN1CCc2cccc3c2[C@H]1Cc1ccc(O)c(O)c1-3` [Apomorphine, reference compound], the values for the ED50 in experiment [4] (setting [8]) and in experiment [4] (setting [9]) were 0.19 µmol/kg and 0.22 µmol/kg, respectively. Moreover, in [7], the “counts per 30 min., apomorphine alone” value was found to be 513 ± 35 counts per 30 min. In experiment [6] (2 μmol/kg s.c.), the Motor activity was 624 ± 51 acc. counts. For the same molecule, the “central postsynaptic DA-receptor stimulation / motor response” value in [6] is listed as “strong central postsynaptic DA-receptor stimulatory effects”.
As to `CCCN1CCCC(c2cccc(OC)c2)C1` (centres unmarked) [2 OCH3 n-C3 H7 HBr, N-Propyl-3-(3-methoxyphenyl)piperidine hydrobromide, reference compound], the median effective dose (ED50) in experiment [4] (setting [10]) and in experiment [4] (setting [11]) was greater than 180 µmol/kg each time.
`CCCCCN1CCCC(c2cccc(O)c2)C1` (centres unmarked) [Compound 6, N-pentyl-3-(3-hydroxyphenyl)piperidine hydrochloride]: the ED50 is 0.9 µmol/kg in experiment [4] (setting [8]) and 0.6 µmol/kg in [4] (setting [9]).
For `O=C(CCCN1CCC(O)(c2ccc(Cl)cc2)CC1)c1ccc(F)cc1` [Haloperidol, reference compound], the Motor activity in the experiment with DA autoreceptors worked out at 140 ± 22 acc. counts.
In the case of `CCCN1CCC(c2cccc(O)c2)C1` (centres unmarked) [Compound 3, N-propyl-30(3-hydroxyphenyl)pyrrolidine], the ED50 in [4] (setting [8]) and in [4] (setting [9]) was roughly 45 µmol/kg throughout.
As to `CCCN1CCCC(c2cccc(OC(=O)C(C)(C)C)c2)C1` (centres unmarked) [Compound 11], the ED50 in [4] (setting [8]) was determined as 2.2 µmol/kg; in experiment [4] (setting [9]) it was 1.7 µmol/kg.
Regarding `CCCCN1CCCC(c2cccc(O)c2)C1` (centres unmarked) [Compound 5, N-butyl-3-(3-hydroxphenyl)piperidine], the results for the ED50 in experiment [4] (setting [8]) and in experiment [4] (setting [9]) were 1.7 µmol/kg and 0.7 µmol/kg, respectively.
For `CCCN1CCCC(c2cccc(OC(=O)c3c(C)cccc3C)c2)C1` (centres unmarked) [Compound 19, N-n-Propyl-3-[2,6-dimethylbenzoyloxy)-phenyl]piperidine hydrochloride], the ED50 in experiment [4] (setting [8]) and in experiment [4] (setting [9]) was less than 45 µmol/kg throughout.
In the case of `Oc1cccc(C2CCNC2)c1` (centres unmarked) [1 OH H HBr, reference compound], the ED50 in [4] (setting [10]) and in [4] (setting [11]) was greater than 90 µmol/kg in each case.
On to `C=CCN1CCCC(c2cccc(O)c2)C1` (centres unmarked) [Compound 9], for which the ED50 in [4] (setting [8]) came out at 4.2 µmol/kg; in experiment [4] (setting [9]), 4 µmol/kg.
`OCCN1CCCC(c2cccc(O)c2)C1` (centres unmarked) [Compound 13, 2-[3-(3-Hydroxyphenyl)-piperidino]ethanol hydrochloride]: the ED50 in experiment [4] (setting [8]) and in experiment [4] (setting [9]) was roughly 20 µmol/kg throughout.
With `C=CCOc1cccc(C2CCCN(CCC)C2)c1` (centres unmarked) [Compound 16, N-n-Propyl-3-(3-allyloxyphenyl)piperidine hydrochloride], the ED50 in experiment [4] (setting [8]) and in experiment [4] (setting [9]) was less than 45 µmol/kg throughout.
